# Data published in patent publication US12258327B2, “5-membered heteroaryl-containing aminopyridine compounds as EGFR inhibitors” (YUHAN CORPORATION, priority 2021, dated 2025).
# pIC50: −log10 of the molar value. Like-named read-outs stand apart in the source and are kept apart here.
# How the values were obtained:
# EGFR del19/C797S = EGFR del19/C797S (Homo sapiens, UniProt P00533, C797S/DEL746-750); assay: Biochemical EGFR kinase assay (Lance Ultra TR-FRET), double mutant del19/C797S
# Protocol: (§1) Biochemical EGFR kinase assays were conducted using Lance Ultra time-resolved fluorescence resonance energy transfer (TR-FRET) technology from Perkin-Elmer. Compounds of the invention were initially diluted to 20 mM in 100% DMSO for storage and made into kinase buffer solution to create a compound concentration ranging from 0.003 μM and 10 μM.
# (§2) Each kinase reactions were incubated at room temperature for 1 hour and then stopped by the addition of 4 μL of stop solution (10 mM EDTA). The specific Europium-labeled-anti-phosphopeptide antibody (PerkinElmer, AD0069) diluted in LANCE detection buffer was then added to a final concentration of 2 nM. After 60 minutes incubation at room temperature the LANCE signal was measured on an EnVision Multilabel Reader (Perkin-Elmer). Excitation wavelength was set at 320 nm and emission monitored at 615 nm (donor) and 665 nm (acceptor). The IC50 values were determined using GraphPad prism software (GraphPad Software, Inc., San Diego, CA, USA).
# EGFR del19/T790M/C797S = EGFR del19/T790M/C797S (Homo sapiens, UniProt P00533, C797S/DEL746-750/T790M); assay: Biochemical EGFR kinase assay (Lance Ultra TR-FRET), triple mutant del19/T790M/C797S; conditions: Km ATP; for IC50: read-out: IC50 del19/T790M/C797S (nM) Km ATP
# Chain of EGFR del19/T790M/C797S (P00533 with tags, fused parts or gaps DEL746-750/T790M/C797S): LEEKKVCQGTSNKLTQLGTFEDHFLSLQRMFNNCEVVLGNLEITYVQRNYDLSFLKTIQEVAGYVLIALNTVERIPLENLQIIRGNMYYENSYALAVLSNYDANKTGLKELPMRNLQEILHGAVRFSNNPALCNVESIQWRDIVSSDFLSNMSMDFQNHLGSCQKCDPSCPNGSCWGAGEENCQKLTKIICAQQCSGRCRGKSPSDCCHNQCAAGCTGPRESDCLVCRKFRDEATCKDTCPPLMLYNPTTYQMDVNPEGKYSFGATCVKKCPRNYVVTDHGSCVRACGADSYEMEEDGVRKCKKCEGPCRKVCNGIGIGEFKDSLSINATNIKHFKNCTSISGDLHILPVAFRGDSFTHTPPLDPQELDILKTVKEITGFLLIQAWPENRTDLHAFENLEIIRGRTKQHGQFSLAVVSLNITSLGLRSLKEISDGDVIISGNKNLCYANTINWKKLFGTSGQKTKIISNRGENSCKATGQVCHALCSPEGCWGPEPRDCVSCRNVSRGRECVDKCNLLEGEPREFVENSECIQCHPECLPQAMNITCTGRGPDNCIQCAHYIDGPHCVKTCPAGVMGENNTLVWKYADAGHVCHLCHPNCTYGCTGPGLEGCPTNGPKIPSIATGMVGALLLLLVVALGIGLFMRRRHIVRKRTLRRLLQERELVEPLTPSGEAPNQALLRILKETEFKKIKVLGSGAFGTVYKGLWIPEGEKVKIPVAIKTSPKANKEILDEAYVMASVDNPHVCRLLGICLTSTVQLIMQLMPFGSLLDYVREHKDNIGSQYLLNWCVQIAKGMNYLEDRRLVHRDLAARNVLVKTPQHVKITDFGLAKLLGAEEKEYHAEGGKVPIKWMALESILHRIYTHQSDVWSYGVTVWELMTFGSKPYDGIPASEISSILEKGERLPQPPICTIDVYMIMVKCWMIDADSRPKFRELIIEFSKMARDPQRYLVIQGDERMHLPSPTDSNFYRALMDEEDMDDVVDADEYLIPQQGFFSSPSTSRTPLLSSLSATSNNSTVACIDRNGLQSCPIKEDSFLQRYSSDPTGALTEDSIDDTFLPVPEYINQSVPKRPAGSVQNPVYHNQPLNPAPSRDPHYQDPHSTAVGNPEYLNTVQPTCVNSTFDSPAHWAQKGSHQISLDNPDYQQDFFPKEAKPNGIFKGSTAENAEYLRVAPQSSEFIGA
# Protocol: as §1, §2
# EGFR L858R/T790M/C797S = EGFR L858R/T790M/C797S (Homo sapiens, UniProt P00533, C797S/L858R/T790M); assay: Biochemical EGFR kinase assay (Lance Ultra TR-FRET), triple mutant L858R/T790M/C797S
# Chain of EGFR L858R/T790M/C797S (P00533 25-1210 T790M/C797S/L858R): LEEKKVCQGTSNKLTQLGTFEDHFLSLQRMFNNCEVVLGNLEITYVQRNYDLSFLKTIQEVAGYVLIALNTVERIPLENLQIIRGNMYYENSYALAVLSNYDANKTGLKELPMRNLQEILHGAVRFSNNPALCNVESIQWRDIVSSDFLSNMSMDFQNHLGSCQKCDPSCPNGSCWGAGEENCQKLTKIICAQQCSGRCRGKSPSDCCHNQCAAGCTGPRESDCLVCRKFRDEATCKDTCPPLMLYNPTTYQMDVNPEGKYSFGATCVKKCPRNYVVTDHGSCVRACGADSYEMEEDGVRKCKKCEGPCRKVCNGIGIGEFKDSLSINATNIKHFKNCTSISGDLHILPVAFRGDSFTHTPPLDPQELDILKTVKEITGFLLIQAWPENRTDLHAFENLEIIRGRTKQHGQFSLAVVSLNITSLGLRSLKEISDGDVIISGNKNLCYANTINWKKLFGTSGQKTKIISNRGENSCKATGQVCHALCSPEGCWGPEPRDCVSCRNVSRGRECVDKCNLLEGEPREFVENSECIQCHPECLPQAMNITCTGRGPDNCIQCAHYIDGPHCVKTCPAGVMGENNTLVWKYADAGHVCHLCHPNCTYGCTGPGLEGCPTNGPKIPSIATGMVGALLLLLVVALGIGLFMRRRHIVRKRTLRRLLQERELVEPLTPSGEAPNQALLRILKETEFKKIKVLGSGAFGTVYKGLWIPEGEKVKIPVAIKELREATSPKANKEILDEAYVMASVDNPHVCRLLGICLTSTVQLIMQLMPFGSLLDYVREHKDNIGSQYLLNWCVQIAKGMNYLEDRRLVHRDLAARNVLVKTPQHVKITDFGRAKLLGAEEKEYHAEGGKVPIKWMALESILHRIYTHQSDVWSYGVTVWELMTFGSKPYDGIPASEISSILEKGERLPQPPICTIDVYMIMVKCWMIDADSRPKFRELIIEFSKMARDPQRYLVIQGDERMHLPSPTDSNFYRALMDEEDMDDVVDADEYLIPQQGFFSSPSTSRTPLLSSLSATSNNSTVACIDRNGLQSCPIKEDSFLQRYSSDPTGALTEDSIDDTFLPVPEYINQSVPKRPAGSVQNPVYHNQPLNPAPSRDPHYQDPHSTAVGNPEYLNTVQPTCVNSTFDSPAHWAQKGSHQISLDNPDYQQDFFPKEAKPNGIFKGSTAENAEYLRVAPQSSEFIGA
# Protocol: as §1, §2
# EGFR wildtype (WT) = EGFR wildtype (WT) (Homo sapiens, UniProt P00533); assay: Biochemical EGFR kinase assay (Lance Ultra TR-FRET), wildtype
# Chain of EGFR wildtype (WT) (P00533 25-1210): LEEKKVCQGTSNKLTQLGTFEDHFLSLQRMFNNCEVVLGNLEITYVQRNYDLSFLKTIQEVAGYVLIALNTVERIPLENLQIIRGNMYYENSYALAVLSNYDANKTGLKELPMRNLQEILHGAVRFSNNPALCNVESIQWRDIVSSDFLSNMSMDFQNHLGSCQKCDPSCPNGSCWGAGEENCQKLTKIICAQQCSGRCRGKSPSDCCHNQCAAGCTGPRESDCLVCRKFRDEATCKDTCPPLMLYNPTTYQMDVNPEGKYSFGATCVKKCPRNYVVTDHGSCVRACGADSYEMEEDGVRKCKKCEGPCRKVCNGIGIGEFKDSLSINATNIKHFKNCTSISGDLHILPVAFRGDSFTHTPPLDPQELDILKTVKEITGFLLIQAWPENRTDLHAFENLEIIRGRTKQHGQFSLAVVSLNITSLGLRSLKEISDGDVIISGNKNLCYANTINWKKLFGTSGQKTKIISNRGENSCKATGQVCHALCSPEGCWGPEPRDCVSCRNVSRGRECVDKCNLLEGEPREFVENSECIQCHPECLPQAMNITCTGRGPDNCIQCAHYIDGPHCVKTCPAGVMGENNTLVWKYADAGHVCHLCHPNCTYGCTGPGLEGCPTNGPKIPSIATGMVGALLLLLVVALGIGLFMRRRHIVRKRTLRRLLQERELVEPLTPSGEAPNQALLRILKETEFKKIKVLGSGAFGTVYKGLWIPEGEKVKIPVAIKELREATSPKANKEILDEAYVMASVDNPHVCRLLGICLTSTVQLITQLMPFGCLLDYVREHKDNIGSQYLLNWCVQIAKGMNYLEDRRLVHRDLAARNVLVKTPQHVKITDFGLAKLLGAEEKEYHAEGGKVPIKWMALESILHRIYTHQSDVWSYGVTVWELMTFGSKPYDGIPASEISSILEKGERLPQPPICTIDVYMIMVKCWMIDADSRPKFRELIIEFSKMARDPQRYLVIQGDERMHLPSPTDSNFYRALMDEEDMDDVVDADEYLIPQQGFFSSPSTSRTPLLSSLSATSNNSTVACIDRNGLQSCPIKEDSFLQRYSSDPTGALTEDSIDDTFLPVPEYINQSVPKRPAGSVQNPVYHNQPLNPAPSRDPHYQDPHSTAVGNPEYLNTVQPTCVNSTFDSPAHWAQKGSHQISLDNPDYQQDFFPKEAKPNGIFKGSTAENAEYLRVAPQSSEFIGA
# Protocol: as §1, §2
# EGFR L858R/C797S = EGFR L858R/C797S (Homo sapiens, UniProt P00533, C797S/L858R); assay: Biochemical EGFR kinase assay (Lance Ultra TR-FRET), double mutant L858R/C797S; conditions: IC50 L858R/C797S (nM) 100 μM ATP, 100 μM ATP
# Protocol: as §1, §2
# [1] = Km ATP, read-out: IC50 del19/C797S (nM) Km ATP
# [2] = Km ATP, read-out: IC50 L858R/T790M/C797S (nM) Km ATP
# [3] = Km ATP, read-out: IC50 WT (nM) Km ATP
# [4] = IC50 del19/C797S (nM) 100 μM ATP, 100 μM ATP
# [5] = IC50 WT (nM) 100 μM ATP, 100 μM ATP
# Chain of EGFR del19/C797S (P00533 with tags, fused parts or gaps DEL746-750/C797S): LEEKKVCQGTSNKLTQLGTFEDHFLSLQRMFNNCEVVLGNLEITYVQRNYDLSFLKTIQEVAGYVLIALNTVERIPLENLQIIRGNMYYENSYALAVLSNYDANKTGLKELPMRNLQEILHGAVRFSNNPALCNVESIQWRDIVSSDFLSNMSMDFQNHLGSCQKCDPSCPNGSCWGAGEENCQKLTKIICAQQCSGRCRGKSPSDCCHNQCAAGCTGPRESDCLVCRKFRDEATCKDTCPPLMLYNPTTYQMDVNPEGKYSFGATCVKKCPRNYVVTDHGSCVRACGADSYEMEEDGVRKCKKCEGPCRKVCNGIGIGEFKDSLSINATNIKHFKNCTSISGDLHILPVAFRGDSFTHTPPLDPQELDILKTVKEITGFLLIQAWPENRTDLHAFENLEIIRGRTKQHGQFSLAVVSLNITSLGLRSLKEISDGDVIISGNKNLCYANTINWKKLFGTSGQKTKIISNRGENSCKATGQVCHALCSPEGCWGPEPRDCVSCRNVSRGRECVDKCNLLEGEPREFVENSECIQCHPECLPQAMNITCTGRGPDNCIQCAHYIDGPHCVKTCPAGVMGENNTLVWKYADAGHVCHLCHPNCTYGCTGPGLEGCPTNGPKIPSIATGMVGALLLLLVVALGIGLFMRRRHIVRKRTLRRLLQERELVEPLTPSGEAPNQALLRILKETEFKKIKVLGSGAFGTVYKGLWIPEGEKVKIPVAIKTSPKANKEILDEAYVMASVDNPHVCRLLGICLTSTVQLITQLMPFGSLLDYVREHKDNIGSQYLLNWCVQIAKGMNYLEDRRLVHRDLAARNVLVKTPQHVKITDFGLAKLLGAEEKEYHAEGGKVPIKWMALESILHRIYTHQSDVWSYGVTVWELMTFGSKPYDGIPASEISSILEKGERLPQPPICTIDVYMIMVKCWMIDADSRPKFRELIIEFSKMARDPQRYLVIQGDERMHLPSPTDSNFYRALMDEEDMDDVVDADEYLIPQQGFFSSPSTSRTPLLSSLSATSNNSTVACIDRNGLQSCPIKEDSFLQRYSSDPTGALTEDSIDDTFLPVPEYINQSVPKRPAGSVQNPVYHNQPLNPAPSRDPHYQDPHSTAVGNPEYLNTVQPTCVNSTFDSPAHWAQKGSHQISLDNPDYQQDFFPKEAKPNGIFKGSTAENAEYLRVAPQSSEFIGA
Structure (SMILES),IC50 (EGFR del19/C797S; [1]) [nM],IC50 (EGFR del19/T790M/C797S) [nM],IC50 (EGFR L858R/T790M/C797S; [2]) [nM],IC50 (EGFR wildtype (WT); [3]) [nM],other results
"CC(C)n1cc(C#Cc2cc(Nc3ccnc(-c4cnn(S(=O)(=O)C5CC5)c4)n3)ncc2-c2cnn(C3CC3)c2)cn1 [Example 6, N-(5-(1-Cyclopropyl-1H-pyrazol-4-yl)-4-((1-isopropyl-1H-pyrazol-4-yl)ethynyl)pyridin-2-yl)-2-(1-(cyclopropylsulfonyl)-1H-pyrazol-4-yl)pyrimidin-4-amine]",347,16.1,19.5,–,–
"O=S(=O)(C1CC1)n1cc(-c2nccc(Nc3cc(C#Cc4cnn(C5CC5)c4)c(-c4cnn(C5CC5)c4)cn3)n2)cn1 [Example 5, N-(5-(1-Cyclopropyl-1H-pyrazol-4-yl)-4-((1-cyclopropyl-1H-pyrazol-4-yl)ethynyl)pyridin-2-yl)-2-(1-(cyclopropylsulfonyl)-1H-pyrazol-4-yl)pyrimidin-4-amine]",317,10.6,13.2,–,–
"Cn1nc(-c2cnc(Nc3ccnc(-c4cnn(CC(F)F)c4)n3)cc2N[C@H]2CC[C@@H](CCO)CC2)cc1C(F)(F)F [Example 333, 2-((1s,4s)-4-((2-((2-(1-(2,2-Difluoroethyl)-1H-pyrazol-4-yl)pyrimidin-4-yl)amino)-5-(1-methyl-5-(trifluoromethyl)-1H-pyrazol-3-yl)pyridin-4-yl)amino)cyclohexyl)ethan-1-ol]",–,–,–,–,"pIC50 (EGFR del19/C797S; Km ATP, read-out: IC50 del19/C797S, Km ATP): 7.78; pIC50 (EGFR del19/T790M/C797S; read-out: IC50 del19/T790M/C797S, Km ATP): 8.36; pIC50 (EGFR wildtype (WT); Km ATP, read-out: IC50 WT, Km ATP): 7.21; pIC50 (EGFR L858R/T790M/C797S; Km ATP, read-out: IC50 L858R/T790M/C797S, Km ATP): 8.54"
"Cn1cc(C#Cc2cc(Nc3ccnc(-c4cnn(S(=O)(=O)C5CC5)c4)n3)ncc2-c2cnn(CC3CC3)c2)cn1 [Example 3, N-(5-(1-(Cyclopropylmethyl)-1H-pyrazol-4-yl)-4-((1-methyl-1H-pyrazol-4-yl)ethynyl)pyridin-2-yl)-2-(1-(cyclopropylsulfonyl)-1H-pyrazol-4-yl)pyrimidin-4-amine]",39.7,6.4,–,229,–
"Cn1cc(C#Cc2cc(Nc3ccnc(-c4cnn(S(=O)(=O)C5CC5)c4)n3)ncc2-c2cnn(C3CC3)c2)cn1 [Example 1, N-(5-(1-Cyclopropyl-1H-pyrazol-4-yl)-4-((1-methyl-1H-pyrazol-4-yl)ethynyl)pyridin-2-yl)-2-(1-(cyclopropylsulfonyl)-1H-pyrazol-4-yl)pyrimidin-4-amine]",63,99,5.9,88.5,–
"C[C@]1(O)CC[C@@H](Nc2cc(Nc3ccnc(-c4cnn(S(=O)(=O)C5CC5)c4)n3)ncc2-c2cn(C(F)F)cn2)CC1 [Example 273, (1s,4s)-4-((2-((2-(1-(Cyclopropylsulfonyl)-1H-pyrazol-4-yl)pyrimidin-4-yl)amino)-5-(1-(difluoromethyl)-1H-imidazol-4-yl)pyridin-4-yl)amino)-1-methylcyclohexan-1-ol]",–,3.1,–,5.9,"IC50 (EGFR del19/C797S; [4]): 0.9 nM; IC50 (EGFR wildtype (WT); [5]): 7310 nM; IC50 (EGFR L858R/T790M/C797S; IC50 L858R/T790M/C797S (nM) 100 μM ATP, 100 μM ATP): 1.3 nM"
"C[C@]1(O)CC[C@@H](Nc2cc(Nc3ccnc(-c4cnn(S(=O)(=O)C5CC5)c4)n3)ncc2-c2ccn(CC(F)(F)F)n2)CC1 [Example 289, (1s,4s)-4-((2-((2-(1-(Cyclopropylsulfonyl)-1H-pyrazol-4-yl)pyrimidin-4-yl)amino)-5-(1-(2,2,2-trifluoroethyl)-1H-pyrazol-3-yl)pyridin-4-yl)amino)-1-methylcyclohexan-1-ol]",–,–,–,17.4,IC50 (EGFR del19/C797S; [4]): 2.7 nM; IC50 (EGFR wildtype (WT); [5]): > 10000 nM; IC50 (EGFR L858R/C797S): 27.4 nM
"C[C@]1(O)CC[C@@H](Nc2cc(Nc3ccnc(-c4cnn(S(=O)(=O)C5CC5)c4)n3)ncc2-n2ccc(OC(F)F)n2)CC1 [Example 187, (1s,4s)-4-((2-((2-(1-(Cyclopropylsulfonyl)-1H-pyrazol-4-yl)pyrimidin-4-yl)amino)-5-(3-(difluoromethoxy)-1H-pyrazol-1-yl)pyridin-4-yl)amino)-1-methylcyclohexan-1-ol]",15.4,0.7,0.5,282,–
